According to the supplement of paper PMC11665569:

Key:
[1] = tested on: KYSE410; assay: relative viability (fraction of vehicle control); higher = more viable / less inhibited; conditions: treatment time: 5 days
Protocol: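 CCK-8 viability of KYSE410 cells transfected with control, YAP/TAZ or TEAD1-4 siRNAs and treated with KRAS G12C inhibitors for 5 days. Values are normalised to vehicle control.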

[2] = tested on: MIAPACA2; assay: as above; conditions: treatment time: 5 days
Protocol: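 CCK-8 viability of MIAPACA2 cells with empty vector or constitutively active YAP S127A, treated with KRAS G12C inhibitors for 5 days, normalised to vehicle control.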

[3] = tested on: H358; conditions: treatment time: 5 days
Protocol: (§1)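 CCK-8 viability of KRAS G12C-mutant cancer cell lines transfected with control, YAP/TAZ or TEAD1-4 siRNAs and treated with KRAS G12C inhibitors for 5 days; IC50 fitted in Prism after normalising absorbance at 450 nm to vehicle control.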

[4] = tested on: KYSE410; conditions: treatment time: 5 days
Protocol: as §1

[5] = tested on: SW1573; conditions: treatment time: 5 days
Protocol: as §1

[6] = tested on: MIAPACA2; conditions: treatment time: 5 days
Protocol: as §1

[7] = tested on: H2030; conditions: treatment time: 5 days
Protocol: as §1

[8] = tested on: H1373; conditions: treatment time: 5 days
Protocol: as §1

[9] = tested on: H1792; conditions: siRNA knockdown (Con = control): Con; treatment time: 5 days
Protocol: as §1

[10] = tested on: H1373; assay: relative viability (fraction of vehicle control); higher = more viable / less inhibited; conditions: treatment time: 5 days
Protocol: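 CCK-8 viability of H1373 cells with empty vector or constitutively active YAP S127A, treated with KRAS G12C inhibitors for 5 days, normalised to vehicle control.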

C=CC(=O)N1CCN(c2nc(=O)n(-c3c(C)ccnc3C(C)C)c3nc(-c4c(O)cccc4F)c(F)cc23)[C@@H](C)C1 [AMG510]
Conditions	IC50 (cell viability, 5 days) [µM]	relative viability
[1], log10 concentration (uM): 0, siRNA knockdown: TEAD1-4 siRNA 1	–	0.586
[1], log10 concentration (uM): 0, siRNA knockdown: TEAD1-4 siRNA 2	–	0.488
[1], log10 concentration (uM): 0, siRNA knockdown: YAP/TAZ siRNA 1	–	0.416
[1], log10 concentration (uM): 0, siRNA knockdown: YAP/TAZ siRNA 2	–	0.353
[1], log10 concentration (uM): 0, siRNA knockdown: negative control siRNA	–	0.695
[1], log10 concentration (uM): 1, siRNA knockdown: TEAD1-4 siRNA 1	–	0.181
[1], log10 concentration (uM): 1, siRNA knockdown: TEAD1-4 siRNA 2	–	0.118
[1], log10 concentration (uM): 1, siRNA knockdown: YAP/TAZ siRNA 1	–	0.141
[1], log10 concentration (uM): 1, siRNA knockdown: YAP/TAZ siRNA 2	–	0.137
[1], log10 concentration (uM): 1, siRNA knockdown: negative control siRNA	–	0.382
[1], log10 concentration (uM): 1.301029996, siRNA knockdown: TEAD1-4 siRNA 1	–	0.0525
[1], log10 concentration (uM): 1.301029996, siRNA knockdown: TEAD1-4 siRNA 2	–	0.0471
[1], log10 concentration (uM): 1.301029996, siRNA knockdown: YAP/TAZ siRNA 1	–	0.0378
[1], log10 concentration (uM): 1.301029996, siRNA knockdown: YAP/TAZ siRNA 2	–	0.0518
[1], log10 concentration (uM): 1.301029996, siRNA knockdown: negative control siRNA	–	0.164
[1], log10 concentration (uM): -1, siRNA knockdown: TEAD1-4 siRNA 1	–	0.691
[1], log10 concentration (uM): -1, siRNA knockdown: TEAD1-4 siRNA 2	–	0.63
[1], log10 concentration (uM): -1, siRNA knockdown: YAP/TAZ siRNA 1	–	0.59
[1], log10 concentration (uM): -1, siRNA knockdown: YAP/TAZ siRNA 2	–	0.489
[1], log10 concentration (uM): -1, siRNA knockdown: negative control siRNA	–	0.749
[1], log10 concentration (uM): -1.30103, siRNA knockdown: TEAD1-4 siRNA 1	–	0.727
[1], log10 concentration (uM): -1.30103, siRNA knockdown: TEAD1-4 siRNA 2	–	0.664
[1], log10 concentration (uM): -1.30103, siRNA knockdown: YAP/TAZ siRNA 1	–	0.643
[1], log10 concentration (uM): -1.30103, siRNA knockdown: YAP/TAZ siRNA 2	–	0.522
[1], log10 concentration (uM): -1.30103, siRNA knockdown: negative control siRNA	–	0.775
[1], log10 concentration (uM): -2, siRNA knockdown: TEAD1-4 siRNA 1	–	0.946
[1], log10 concentration (uM): -2, siRNA knockdown: TEAD1-4 siRNA 2	–	1.02
[1], log10 concentration (uM): -2, siRNA knockdown: YAP/TAZ siRNA 1	–	0.841
[1], log10 concentration (uM): -2, siRNA knockdown: YAP/TAZ siRNA 2	–	0.713
[1], log10 concentration (uM): -2, siRNA knockdown: negative control siRNA	–	0.884
[1], log10 concentration (uM): -2.30103, siRNA knockdown: TEAD1-4 siRNA 1	–	0.967
[1], log10 concentration (uM): -2.30103, siRNA knockdown: TEAD1-4 siRNA 2	–	0.941
[1], log10 concentration (uM): -2.30103, siRNA knockdown: YAP/TAZ siRNA 1	–	0.929
[1], log10 concentration (uM): -2.30103, siRNA knockdown: YAP/TAZ siRNA 2	–	0.7753
[1], log10 concentration (uM): -2.30103, siRNA knockdown: negative control siRNA	–	0.9373
[1], log10 concentration (uM): -3, siRNA knockdown: TEAD1-4 siRNA 1	–	1.21
[1], log10 concentration (uM): -3, siRNA knockdown: TEAD1-4 siRNA 2	–	1.19
[1], log10 concentration (uM): -3, siRNA knockdown: YAP/TAZ siRNA 1	–	0.996
[1], log10 concentration (uM): -3, siRNA knockdown: YAP/TAZ siRNA 2	–	0.961
[1], log10 concentration (uM): -3, siRNA knockdown: negative control siRNA	–	0.953
[1], log10 concentration (uM): -4, siRNA knockdown: TEAD1-4 siRNA 1	–	1.08
[1], log10 concentration (uM): -4, siRNA knockdown: TEAD1-4 siRNA 2	–	1.32
[1], log10 concentration (uM): -4, siRNA knockdown: YAP/TAZ siRNA 1	–	1.03
[1], log10 concentration (uM): -4, siRNA knockdown: YAP/TAZ siRNA 2	–	0.998
[1], log10 concentration (uM): -4, siRNA knockdown: negative control siRNA	–	0.951
[2], log10 concentration (uM): 0, ectopic expression: YAP S127A	–	0.773
[2], log10 concentration (uM): 0, ectopic expression: empty vector (YAP experiment)	–	0.0894
[2], log10 concentration (uM): 1, ectopic expression: YAP S127A	–	0.727
[2], log10 concentration (uM): 1, ectopic expression: empty vector (YAP experiment)	–	0.106
[2], log10 concentration (uM): 1.301029996, ectopic expression: YAP S127A	–	0.285
[2], log10 concentration (uM): 1.301029996, ectopic expression: empty vector (YAP experiment)	–	0.047
[2], log10 concentration (uM): -1, ectopic expression: YAP S127A	–	0.861
[2], log10 concentration (uM): -1, ectopic expression: empty vector (YAP experiment)	–	0.128
[2], log10 concentration (uM): -1.30103, ectopic expression: YAP S127A	–	0.91
[2], log10 concentration (uM): -1.30103, ectopic expression: empty vector (YAP experiment)	–	0.237
[2], log10 concentration (uM): -2, ectopic expression: YAP S127A	–	0.988
[2], log10 concentration (uM): -2, ectopic expression: empty vector (YAP experiment)	–	0.79
[2], log10 concentration (uM): -2.30103, ectopic expression: YAP S127A	–	1.03
[2], log10 concentration (uM): -2.30103, ectopic expression: empty vector (YAP experiment)	–	0.906
[2], log10 concentration (uM): -3, ectopic expression: YAP S127A	–	1.05
[2], log10 concentration (uM): -3, ectopic expression: empty vector (YAP experiment)	–	1.03
[2], log10 concentration (uM): -4, ectopic expression: YAP S127A	–	1
[2], log10 concentration (uM): -4, ectopic expression: empty vector (YAP experiment)	–	1
[3], siRNA knockdown (Con = control): Con	0.00718	–
[3], siRNA knockdown (Con = control): TEAD1234_si1	0.00408	–
[3], siRNA knockdown (Con = control): TEAD1234_si2	0.00417	–
[3], siRNA knockdown (Con = control): YAP_WWTR1_si1	0.00408	–
[3], siRNA knockdown (Con = control): YAP_WWTR1_si2	0.00296	–
[4], siRNA knockdown (Con = control): Con	3.54	–
[4], siRNA knockdown (Con = control): TEAD1234_si1	0.853	–
[4], siRNA knockdown (Con = control): YAP_WWTR1_si1	0.163	–
[4], siRNA knockdown (Con = control): YAP_WWTR1_si2	0.0335	–
[5], siRNA knockdown (Con = control): Con	12.3	–
[5], siRNA knockdown (Con = control): TEAD1234_si1	0.0109	–
[5], siRNA knockdown (Con = control): TEAD1234_si2	0.00411	–
[5], siRNA knockdown (Con = control): YAP_WWTR1_si1	0.00287	–
[5], siRNA knockdown (Con = control): YAP_WWTR1_si2	0.00342	–
[6], siRNA knockdown (Con = control): Con	0.163	–
[6], siRNA knockdown (Con = control): TEAD1234_si1	0.0661	–
[6], siRNA knockdown (Con = control): TEAD1234_si2	0.0575	–
[6], siRNA knockdown (Con = control): YAP_WWTR1_si1	0.0463	–
[6], siRNA knockdown (Con = control): YAP_WWTR1_si2	0.0699	–
[7], siRNA knockdown (Con = control): TEAD1234_si2	0.0109	–
[7], siRNA knockdown (Con = control): YAP_WWTR1_si1	0.00818	–
[8], siRNA knockdown (Con = control): Con	0.0307	–
[8], siRNA knockdown (Con = control): YAP_WWTR1_si1	0.0102	–
[8], siRNA knockdown (Con = control): YAP_WWTR1_si2	0.00431	–
[10], log10 concentration (uM): 0, ectopic expression: YAP S127A	–	0.575
[10], log10 concentration (uM): 0, ectopic expression: empty vector (YAP experiment)	–	0.267
[10], log10 concentration (uM): 1, ectopic expression: YAP S127A	–	0.47
[10], log10 concentration (uM): 1, ectopic expression: empty vector (YAP experiment)	–	0.245
[10], log10 concentration (uM): 1.301029996, ectopic expression: YAP S127A	–	0.25
[10], log10 concentration (uM): 1.301029996, ectopic expression: empty vector (YAP experiment)	–	0.12
[10], log10 concentration (uM): -1, ectopic expression: YAP S127A	–	0.581
[10], log10 concentration (uM): -1, ectopic expression: empty vector (YAP experiment)	–	0.351
[10], log10 concentration (uM): -1.30103, ectopic expression: YAP S127A	–	0.619
[10], log10 concentration (uM): -1.30103, ectopic expression: empty vector (YAP experiment)	–	0.407
[10], log10 concentration (uM): -2, ectopic expression: YAP S127A	–	0.636
[10], log10 concentration (uM): -2, ectopic expression: empty vector (YAP experiment)	–	0.624
[10], log10 concentration (uM): -2.30103, ectopic expression: YAP S127A	–	0.71
[10], log10 concentration (uM): -2.30103, ectopic expression: empty vector (YAP experiment)	–	0.68
[10], log10 concentration (uM): -3, ectopic expression: YAP S127A	–	0.834
[10], log10 concentration (uM): -3, ectopic expression: empty vector (YAP experiment)	–	0.937
[10], log10 concentration (uM): -4, ectopic expression: YAP S127A	–	0.986
[10], log10 concentration (uM): -4, ectopic expression: empty vector (YAP experiment)	–	1.01

Conditions	IC50 (cell viability, 5 days) [µM]
[9]	6.33
